We go through one molecule from patent US10932454B2, “LDL receptor gene knockout, genetically-engineered hamster” (HEBEI INVIVO BIOTECH INC, priority 2016, dated 2021).

Series [1] has as its system LDL-R gene deficient Δ194 bp heterozygous hamsters. In words: High-fat diet feeding with intragastric ezetimibe in LDL-R+/- hamsters; plasma lipids, lipoprotein FPLC, body weight. Type of series: in vivo, golden Syrian hamster. On the procedure:
(§1) The high-fat diet used in the study was a normal rodent diet containing 0.5% cholesterol and 10% lard. The dose of ezetimibe was 2 mg/kg body weight, administered by intragastric administration, and the control group was given tri-distilled water. Plasma was collected before high-fat diet feeding, after two weeks of high-fat diet feeding, before administration and after two weeks of administration, respectively. The hamsters were fasted for 12 hours at night, anesthetized by intraperitoneal injection of pentobarbital sodium, and about 1 ml of blood was collected from the posterior orbital vein, and heparin was used for anticoagulation. A plasma triglyceride assay kit and a total cholesterol assay kit (Biosino Bio-Technology and Science Inc.) were used to detect plasma triglyceride and total cholesterol levels. High-density lipoprotein cholesterol (HDL-C) was tested for cholesterol levels after removal of apoB-containing lipoproteins by polyethylene glycol precipitation. The lipid component of plasma lipoprotein was detected by using fast protein liquid chromatography (FPLC) instrument of Amersham Biocsciences, USA, and the plasma lipoprotein fraction was firstly separated by superose 6 HR10/30 column. 200 μl of plasma was loaded through a 0.22 μm syringe filter, and the separated components were automatically collected at a rate of 0.5 mL per minute, 500 μl per component, for a total of 35 components. The above cholesterol detection kit was applied to each component to detect the cholesterol content, and a plasma lipoprotein profile was prepared.

The test system of series [2] is wild type control hamsters. As to the kind of experiment: High-fat diet feeding with intragastric ezetimibe in wild type hamsters; plasma lipids. Type of series: in vivo, golden Syrian hamster. The following applies: WT hamsters, high-fat diet plus 2 mg/kg ezetimibe intragastric daily for two weeks. On the procedure: as §1, with “200 μl of plasma was loaded through a 0.22 μm syringe filter, and the separated components were automatically collected at a rate of 0.5 mL per minute, 500 μl per component, for a total of 35 components. The above cholesterol detection kit was applied to each component to detect the cholesterol content, and a plasma lipoprotein profile was prepared.” left out

Where [3] appears, read: 2 mg/kg intragastric daily, two weeks, high-fat diet.

Structures are written as SMILES. Entries after “also recorded” stand apart in the source; their conditions may differ.

As for `O=C1[C@H](CC[C@H](O)c2ccc(F)cc2)[C@@H](c2ccc(O)cc2)N1c1ccc(F)cc1` [ezetimibe], in series [1] (2 mg/kg intragastric daily, high-fat diet), the “effect on hyperlipidemia of LDL-R knockout hamsters” value is “significantly reverses hyperlipidemia; also recorded: significantly reversed hypelipidemia”. Moreover, in series [1] (setting [3]), the “HDL cholesterol in plasma (FPLC)” value is “not significantly changed; also recorded: little effect on HDL”. In addition, the “VLDL and LDL cholesterol in plasma (FPLC)” value in series [1] (setting [3]) was “decrease of VLDL-C and LDL-C; also recorded: mainly decreased VLDL and LDL in plasma”. In series [1] (2 mg/kg intragastric daily, two weeks, high-fat diet, each group of hamsters (WT and LDL-R+/-)), the “body weight, ezetimibe-administered group vs high-fat diet feeding group” value is given as “no significant difference”. In series [1] (LDL-R heterozygous hamster on high-fat diet (0.5% cholesterol, 10% fat), ezetimibe 2 mg/kg), the “plasma cholesterol change after administration (in words)” value is given as “decreased to the level of the wild type hamster fed on common diet”. Also, the “triglyceride level after administration” value in series [1] (LDL-R+/- hamsters, high-fat diet plus 2 mg/kg ezetimibe intragastric daily for two weeks, high-fat diet only 658 mg/dL) is given as 225 mg/dL; in series [2] (high-fat diet only 413 mg/dL), 157 mg/dL. The “plasma cholesterol level after administration” value is 157 mg/dL in series [1] (LDL-R+/- hamsters, high-fat diet plus 2 mg/kg ezetimibe intragastric daily for two weeks, high-fat diet only 1864 mg/dL) and 111 mg/dL in series [2] (high-fat diet only 513 mg/dL).
